Here are results for four compounds from patent US7267946B2, “Mitochondrial DNA damage as a predictor of coronary atherosclerotic heart disease” (Research Development Foundation, priority 1999, dated 2007).

The test system of assay [1] is mitochondrial DNA. The assay can be described thus: QPCR DNA damage assay, mtDNA, HASMC. Format: cell-based, human. To be noted: 0.2 mM, time course 0-60 minutes. As for the experimental part:
(§1) Human umbilical endothelial vein cells (HUVEC) and human aortic smooth muscle cells (HASMC) were maintained a t 37° C. and 5% CO2/95% air in Dulbecco's Modified Eagles Media (HASMC; Cell Gro) or M199 (HUVEC:Cell Gro) supplemented with 10% (HASMC) or 20% (HUVEC) heat inactivated fetal calf serum (Gibco/BRL), HEPES buffer (10 mM), glutamine, penicillin, and streptomycin. Flasks were routinely split every 3-4 days and disassociated for experiments using trypsin-EDTA (Gibco/BRL). Cells were treated with the various reactive oxygen species (controls mock treated with serum-free media) at 70-80% confluence, between passages 5-7.
(§2) Xanthine oxidase/lumazine and spermine NONOate were used as low dose O2^− and nitric oxide donors, respectively. […]
(§3) The QPCR assay measures the average degree of DNA damage per strand for the two template strands in the genomic segment of interest. […] Damage is assessed in the mitochondrial genome by amplifying a 16.2 kb product from the mitochondrial DNA template, and the nuclear genome by a 17.7 kb product from the β-globin gene cluster. […] Because differences in QPCR amplifications may at times be related to template copy number differences or simply due to the DNA quality unrelated to in vivo or in vitro mediated damage, a quantitative amplification of a small region is performed as a quality control (32). […]

The subject of assay [2] is mitochondrial DNA. The assay can be described thus: QPCR DNA damage assay, mtDNA, HUVEC. Format: cell-based, human. As for the experimental part:
as §1
Xanthine oxidase/lumazine and spermine NONOate were used as low dose O2^− and nitric oxide donors, respectively. SIN-1 (3-morpholinosydnonimine, hydrochloride, Molecular Probes) was used to generate higher, equimolar levels of nitric oxide and O2^−. Monolayer cultures in 60 mm plates (70%-80% confluent) were exposed to specific reactive oxygen species concentrations for dose response, and time-course experiments in serum-free, phenol red free minimum essential media (MEM) at 37° C. Control monolayers were mock-treated with serum-free and phenol red-free MEM alone. After treatment, cells were washed once with PBS and harvested immediately.
as §3

Assay [3] relates to nDNA (β-globin gene cluster). The assay can be described thus: QPCR DNA damage assay, nDNA, HUVEC. To be noted: 0.2 mM, time course 0-60 minutes. The class given is cell-based, human. The procedure: as §1, §2, §3
The test system of assay [4] is mitochondrial protein synthesis. The assay can be described thus: Mitochondrial protein synthesis (35S-methionine incorporation), HASMC. The class given is cell-based, human. The procedure:
(§4) Human umbilical endothelial vein cells (HUVEC) and human aortic smooth muscle cells (HASMC) were maintained a t 37° C. and 5% CO2/95% air in Dulbecco's Modified Eagles Media (HASMC; Cell Gro) or M199 (HUVEC:Cell Gro) supplemented with 10% (HASMC) or 20% (HUVEC) heat inactivated fetal calf serum (Gibco/BRL), HEPES buffer (10 mM), glutamine, penicillin, and streptomycin. Flasks were routinely split every 3-4 days and disassociated for experiments using trypsin-EDTA (Gibco/BRL). Cells were treated with the various reactive oxygen species (controls mock treated with serum-free media) at 70-80% confluence, between passages 5-7. […] SIN-1 (3-morpholinosydnonimine, hydrochloride, Molecular Probes) was used to generate higher, equimolar levels of nitric oxide and O2^−. Monolayer cultures in 60 mm plates (70%-80% confluent) were exposed to specific reactive oxygen species concentrations for dose response, and time-course experiments in serum-free, phenol red free minimum essential media (MEM) at 37° C. Control monolayers were mock-treated with serum-free and phenol red-free MEM alone. After treatment, cells were washed once with PBS and harvested immediately. Methods for mitochondrial protein synthesis analyses have been described (37). […] Cells were trypsinized, and washed with PBS. […] Gels were dried onto Whatman filter paper, and exposed to Kodak XAR film at −80° C. The percent labeling of the translation products was determined by densitometry (Molecular Dynamics Densitometer SI) of all bands for untreated and treated samples. The sum of labeling of the bands for each sample was used to calculate the relative levels of incorporation. In regard to the quantitation of mitochondrial protein levels, any technique used to quantify mitochondrial protein synthesis levels would be applicable. Statistical analysis was performed using the independent Student's t test.

For assay [5] the test system is unchanged. The assay can be described thus: Mitochondrial protein synthesis (35S-methionine incorporation), HUVEC. Format: cell-based, human. As for the experimental part:
as §4

Assay [6] concerns 16S rRNA, ND2 and Cyt b transcripts. The assay can be described thus: Northern transcript analysis, HASMC. Format: cell-based, human. The note with it: 0.5 mM, 60 min. The procedure: (§5) Human umbilical endothelial vein cells (HUVEC) and human aortic smooth muscle cells (HASMC) were maintained a t 37° C. and 5% CO2/95% air in Dulbecco's Modified Eagles Media (HASMC; Cell Gro) or M199 (HUVEC:Cell Gro) supplemented with 10% (HASMC) or 20% (HUVEC) heat inactivated fetal calf serum (Gibco/BRL), HEPES buffer (10 mM), glutamine, penicillin, and streptomycin. Flasks were routinely split every 3-4 days and disassociated for experiments using trypsin-EDTA (Gibco/BRL). Cells were treated with the various reactive oxygen species (controls mock treated with serum-free media) at 70-80% confluence, between passages 5-7. […] SIN-1 (3-morpholinosydnonimine, hydrochloride, Molecular Probes) was used to generate higher, equimolar levels of nitric oxide and O2^-. Monolayer cultures in 60 mm plates (70%-80% confluent) were exposed to specific reactive oxygen species concentrations for dose response, and time-course experiments in serum-free, phenol red free minimum essential media (MEM) at 37° C. Control monolayers were mock-treated with serum-free and phenol red-free MEM alone. […] Autoradiographs were scanned densitometrically (Molecular Dynamics Densitometer SI) and quantitated using IMAGEQUANT (Molecular Dynamics). In regard to the quantitation of mitochondrial transcript levels, any technique used to quantify mtRNA transcript levels would be applicable. […]

Assay [7] has the same test system. Briefly: Northern transcript analysis, HUVEC. The class given is cell-based, human. The note with it: 0.5 mM, 60 min. The procedure:
as §5

In assay [8] the test system is mitochondrial DNA encoded OXPHOS gene transcripts; β-actin. Briefly: Northern transcript analysis, HUVEC and HASMC pooled statements. The class given is cell-based, human. To be noted: peroxynitrite treatments. As for the experimental part:
as §5

For assay [9], the system named is mitochondrial protein synthesis. Briefly: Mitochondrial protein synthesis, HUVEC and HASMC pooled statements. Format: cell-based. The note with it: Homo sapiens; 0.1 mM, cell line not stated. As for the experimental part: Human umbilical endothelial vein cells (HUVEC) and human aortic smooth muscle cells (HASMC) were maintained a t 37° C. and 5% CO2/95% air in Dulbecco's Modified Eagles Media (HASMC; Cell Gro) or M199 (HUVEC:Cell Gro) supplemented with 10% (HASMC) or 20% (HUVEC) heat inactivated fetal calf serum (Gibco/BRL), HEPES buffer (10 mM), glutamine, penicillin, and streptomycin. Flasks were routinely split every 3-4 days and disassociated for experiments using trypsin-EDTA (Gibco/BRL). Cells were treated with the various reactive oxygen species (controls mock treated with serum-free media) at 70-80% confluence, between passages 5-7. […] SIN-1 (3-morpholinosydnonimine, hydrochloride, Molecular Probes) was used to generate higher, equimolar levels of nitric oxide and O2^−. Monolayer cultures in 60 mm plates (70%-80% confluent) were exposed to specific reactive oxygen species concentrations for dose response, and time-course experiments in serum-free, phenol red free minimum essential media (MEM) at 37° C. […] The percent labeling of the translation products was determined by densitometry (Molecular Dynamics Densitometer SI) of all bands for untreated and treated samples. […] In regard to the quantitation of mitochondrial protein levels, any technique used to quantify mitochondrial protein synthesis levels would be applicable. […]

The subject of assay [10] is complex II, succinate dehydrogenase. Briefly: MTT reduction (mitochondrial respiration), HASMC. The class given is cell-based, human. To be noted: 1 hour. The procedure: (§6) Reduction of MTT at complex II was used to assess mitochondrial respiration (38-42). Cells were seeded in 96 well plates at a density of 8,000 cells/well and incubated at 37° C. […] Absorbance values were converted to MTT reduction using a standard curve generated with known numbers of viable cells. MTT reduction for treated samples was then normalized to non-treated control samples and is reported as a fraction of control. Total ATP levels were determined using an ATP determination kit (Molecular Probes, A-6608) and a MicroLumat Plus LB (EG&G Berthold) micro-injector luminometer. Briefly, this assay is based upon luciferin-luciferase bioluminescence (˜560 nm) in the presence of ATP. This assay is extremely sensitive; most luminometers can detect as little as 0.1 picomole of pre-existing ATP, or ATP as it is being formed in kinetic systems. Statistical analysis was performed using the independent Student's t test.

Assay [11] shares this test system. Briefly: MTT reduction (mitochondrial respiration), HUVEC. Format: cell-based, human. To be noted: 1 hour. The procedure:
as §6
For orientation: Tetrazolium assays rely on reduction of a dye to a coloured formazan, in cell work by metabolically active cells.

The subject of another assay is HASMC. Briefly: Total ATP determination, HASMC. The class given is cell-based, human. To be noted: 1 hour. As for the experimental part:
as §6

Another assay has as its system HUVEC. Briefly: Total ATP determination, HUVEC. Format: cell-based, human. To be noted: 1 hour. As for the experimental part: as §6
For the next assay, the target named is T1, recombinant human MnSOD (Homo sapiens, UniProt P04179).
T1 sequence (P04179 25-222): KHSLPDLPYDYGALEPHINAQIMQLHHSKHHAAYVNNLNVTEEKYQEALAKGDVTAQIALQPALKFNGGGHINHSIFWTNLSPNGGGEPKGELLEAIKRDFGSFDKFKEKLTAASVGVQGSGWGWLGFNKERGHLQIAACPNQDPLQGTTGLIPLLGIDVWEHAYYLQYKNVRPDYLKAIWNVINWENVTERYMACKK
To be noted: cited from earlier work.

Where [12] appears, read: Homo sapiens, 0.5 mM, read-out: protein labeling, % of control.

Bounds are passed on as bounds.

On to `OO` [H2O2, hydrogen peroxide], for which the “time at which significant mitochondrial DNA damage occurred” value is listed as at most 15 min with mitochondrial DNA [1] and at most 10 min in the assay on mitochondrial DNA [2] (HUVEC, 0.2 mM, time course 0-60 minutes). The “treatment time required before significant nDNA (β-globin) damage” value in assay [3] was 60 min. In addition, the results for the “35S-Methionine Incorporation Compared to Control” value in assay [4] (0.2 mM) and in assay [5] (0.2 mM) were 67% and 77%, respectively.

One may read the inhibition as the drop in the measured response relative to a control, in per cent. A high value points to a response far below the control. For the compound `O=NOO` [peroxynitrite], in [6], the “decrease in ND2 and Cyt b transcript levels” value was determined as 55%. Further, the “reduction of 16S rRNA levels” value in assay [6] is on record as 14%. The “decrease of 16S rRNA levels” value in [7] came out at 26%. Also, in assay [8], the “transcript levels of the nuclear β-actin gene” value is “unaffected”. Also, the “35S-Methionine Incorporation Compared to Control” value in assay [4] came to 30%; in assay [4] (0.1 mM) it was 88%; in assay [5] it was 45%. In assay [4] (0.1 mM), the “decrease in 35S-methionine incorporation” value turned out to be 12%. Moreover, the figures for the activity at 500 µM in [4] (setting [12]) and in assay [5] (setting [12]) were 30% and 45%, respectively. Further, in [5] (0.5 mM), the “loss of mitochondrial protein synthesis compared to untreated cells” value is on record as 55%. Further, in [9], the inhibition at 100 µM stood at 10%. Moreover, the “complex II reduction of MTT (mitochondrial respiration), in words” value is given as “did not result in a significant decrease” in assay [10] (0.1 mM); “significant decline” in [10] (0.5 mM, P=0.008); “did not result in a significant decrease” in assay [11] (0.1 mM); “significant decline” in [11] (0.5 mM, P=0.02). The “total ATP (in words)” value was “did not result in a significant reduction” in the assay with HASMC (0.1 mM); “significant decreases” in the assay with HASMC (0.5 mM, P=0.04); “did not result in a significant reduction” in the assay with HUVEC (0.1 mM); “significant decreases” in the assay on HUVEC (0.5 mM, P=0.02). In addition, the “inhibition of MnSOD enzymatic activity” value at recombinant human MnSOD was “complete inhibition”.

On to `NCCCNCCCCN(CCCN)/[N+]([O-])=N/O` [spermine NONOate], for which the “DNA damage (in words)” value in the assay on mitochondrial DNA [2] (sustained nitric oxide generation 0.5 mM/ml/min, cell line not named in the clause (HUVEC context)) was “did no t cause DNA damage”.

On to catalase, for which the “effect of pretreatment on O2^- induced mitochondrial DNA damage” value in the assay with mitochondrial DNA [2] (HUVEC, O2^- 2 mM/ml/minute) was “prevented”.
